Where a name gives a salt, the structure may show the parent alone. Residues, ends and D or L forms follow the SMILES beside them. *: point of attachment. Cbz = O=C(OCc1ccccc1)*; CF3 = FC(F)(F)*; Moc = COC(=O)*

Consider eleven molecules from ChEMBL document CHEMBL1133572, “Protease inhibitors: current status and future prospects” (J Med Chem, 2000).

One data set deals with Neutrophil elastase (Homo sapiens, UniProt P08246).
Data set [1] deals with Complement C1r subcomponent (Homo sapiens, UniProt P00736). The experiment in a line: Binding affinity against factor C1r.
Sequence of Complement C1r subcomponent (P00736 18-463 limits assumed): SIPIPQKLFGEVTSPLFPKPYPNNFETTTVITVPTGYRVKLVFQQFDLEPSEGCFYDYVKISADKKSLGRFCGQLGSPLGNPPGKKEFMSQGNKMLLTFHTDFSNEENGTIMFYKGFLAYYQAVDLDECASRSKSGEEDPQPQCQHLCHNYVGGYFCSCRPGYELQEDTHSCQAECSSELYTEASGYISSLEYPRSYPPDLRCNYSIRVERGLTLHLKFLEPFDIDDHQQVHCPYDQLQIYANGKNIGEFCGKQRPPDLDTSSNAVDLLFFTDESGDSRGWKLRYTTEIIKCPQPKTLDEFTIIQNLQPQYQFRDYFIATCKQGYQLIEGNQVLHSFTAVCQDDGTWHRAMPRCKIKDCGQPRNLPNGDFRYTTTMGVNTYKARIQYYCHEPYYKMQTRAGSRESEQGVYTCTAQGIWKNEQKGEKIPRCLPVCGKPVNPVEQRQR
Sequence of Complement C1r subcomponent (P00736 464-705 limits assumed): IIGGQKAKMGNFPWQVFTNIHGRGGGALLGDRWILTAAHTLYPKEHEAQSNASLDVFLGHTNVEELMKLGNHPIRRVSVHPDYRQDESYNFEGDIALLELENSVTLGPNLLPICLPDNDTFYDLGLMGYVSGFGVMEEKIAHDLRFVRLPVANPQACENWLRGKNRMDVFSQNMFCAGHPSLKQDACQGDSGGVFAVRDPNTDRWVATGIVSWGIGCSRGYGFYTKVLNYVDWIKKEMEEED
Another data set concerns the target Kallikrein-1 (Homo sapiens, UniProt P06870). The experiment in a line: Binding affinity against pancreatic kallikrein.
For another data set, the target named is Plasma kallikrein (Homo sapiens, UniProt P03952). The experiment in a line: Binding affinity against plasma kallikrein. It is filed as cell-free.
Sequence of Plasma kallikrein (P03952 20-390 limits assumed): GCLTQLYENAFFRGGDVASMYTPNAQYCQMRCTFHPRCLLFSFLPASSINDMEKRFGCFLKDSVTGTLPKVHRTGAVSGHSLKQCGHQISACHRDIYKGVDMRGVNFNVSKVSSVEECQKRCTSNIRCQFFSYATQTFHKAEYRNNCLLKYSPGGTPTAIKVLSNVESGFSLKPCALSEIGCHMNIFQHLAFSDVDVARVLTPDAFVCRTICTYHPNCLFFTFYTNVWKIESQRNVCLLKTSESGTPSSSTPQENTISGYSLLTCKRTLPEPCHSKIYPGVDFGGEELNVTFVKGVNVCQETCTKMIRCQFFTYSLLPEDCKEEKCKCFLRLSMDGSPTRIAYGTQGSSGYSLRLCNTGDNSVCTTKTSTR
Sequence of Plasma kallikrein (P03952 391-638 limits assumed): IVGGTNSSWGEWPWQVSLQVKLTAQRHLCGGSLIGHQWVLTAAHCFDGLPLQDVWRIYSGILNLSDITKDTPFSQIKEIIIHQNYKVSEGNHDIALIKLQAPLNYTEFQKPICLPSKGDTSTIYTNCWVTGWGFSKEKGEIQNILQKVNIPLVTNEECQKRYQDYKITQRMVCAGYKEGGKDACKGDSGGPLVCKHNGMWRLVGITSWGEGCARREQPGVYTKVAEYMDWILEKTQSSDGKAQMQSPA
The next data set has as its target Serine protease 1 (Homo sapiens, UniProt P07477). The experiment in a line: Binding affinity against trypsin.
Data set [2] can be described thus: Inhibitory activity against complement mediated hemoyses in alternate pathway. In kind it is functional.
The target in a further data set is Prothrombin (Homo sapiens, UniProt P00734). The experiment in a line: Binding affinity against plasma thrombin. In kind it is cell-free.
The nature of data set [3]: Inhibitory activity against complement mediated hemoyses in classical pathway. In kind it is functional.
In another data set the target is Coagulation factor X (Homo sapiens, UniProt P00742).
Sequence of Coagulation factor X (P00742 41-179 limits assumed): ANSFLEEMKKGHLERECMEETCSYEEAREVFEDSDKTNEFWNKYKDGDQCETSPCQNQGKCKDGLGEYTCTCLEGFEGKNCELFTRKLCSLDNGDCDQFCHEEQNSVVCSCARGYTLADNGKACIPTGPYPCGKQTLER
Sequence of Coagulation factor X (P00742 235-488 limits assumed): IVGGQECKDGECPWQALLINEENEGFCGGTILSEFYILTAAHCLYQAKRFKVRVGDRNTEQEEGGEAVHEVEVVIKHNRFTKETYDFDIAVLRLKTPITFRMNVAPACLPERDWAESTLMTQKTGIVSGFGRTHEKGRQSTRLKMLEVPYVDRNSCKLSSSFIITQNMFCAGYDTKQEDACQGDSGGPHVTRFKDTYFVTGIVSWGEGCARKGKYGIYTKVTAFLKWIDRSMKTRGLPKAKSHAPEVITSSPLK
Data set [4] can be described thus: The effective dose required for 50% inhibition of elastase. It is filed as functional.
Data set [5] addresses T1, Cathepsin B (Homo sapiens, UniProt P07858). The experiment in a line: Inhibitory activity against cathepsin B (ip). In kind it is organism-based.
Data set [6] deals with T1, Cathepsin B. The experiment in a line: Inhibitory activity against cathepsin B (po). It is filed as organism-based.
The target of data set [7] is T1, Cathepsin B. The experiment in a line: Inhibitory activity against cathepsin B (sc). It is filed as organism-based.
In data set [8] the target is T2, Human rhinovirus A protease (Human rhinovirus sp., UniProt Q4U254).
T2 sequence (Q4U254 whole entry): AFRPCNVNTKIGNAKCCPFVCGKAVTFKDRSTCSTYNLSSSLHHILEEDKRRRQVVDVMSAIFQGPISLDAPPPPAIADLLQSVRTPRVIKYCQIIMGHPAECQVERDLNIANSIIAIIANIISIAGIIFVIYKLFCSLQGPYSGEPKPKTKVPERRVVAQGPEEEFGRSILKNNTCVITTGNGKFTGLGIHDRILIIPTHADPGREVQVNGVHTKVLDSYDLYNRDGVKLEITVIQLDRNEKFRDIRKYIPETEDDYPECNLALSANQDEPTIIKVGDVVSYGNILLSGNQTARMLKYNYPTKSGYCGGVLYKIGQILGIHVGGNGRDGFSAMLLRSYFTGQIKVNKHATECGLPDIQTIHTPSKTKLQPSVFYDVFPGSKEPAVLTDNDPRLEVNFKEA

Data set [9] addresses T3, Human rhinovirus A protease (Human rhinovirus sp.) (UniProt Q4U254).
T3 sequence (whole entry): T2 sequence (Q4U254 whole entry)

Data set [10] deals with Cathepsin K (Homo sapiens) (UniProt P43235). The experiment in a line: Inhibition of Cathepsin K.
Sequence of Cathepsin K (Homo sapiens) (P43235 whole entry): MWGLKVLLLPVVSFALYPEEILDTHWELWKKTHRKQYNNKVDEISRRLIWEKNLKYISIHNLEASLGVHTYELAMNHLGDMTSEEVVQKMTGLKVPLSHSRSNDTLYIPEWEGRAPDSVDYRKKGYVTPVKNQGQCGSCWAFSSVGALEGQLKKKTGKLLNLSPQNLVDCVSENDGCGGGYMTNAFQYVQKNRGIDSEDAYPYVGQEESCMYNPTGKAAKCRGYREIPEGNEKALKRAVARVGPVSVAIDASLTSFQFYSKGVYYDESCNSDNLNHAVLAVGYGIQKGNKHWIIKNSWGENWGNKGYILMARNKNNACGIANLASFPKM
Data set [11] is described as follows: Cmax value at the period of 0-24 hr after 125 mg dose. It is filed as ADME, organism-based. Details: dose 125 mg. Particulars: in vivo.
A short description of data set [12]: Cmax value at the period of 0-24 hr after 259 mg dose. In kind it is ADME, organism-based. Details: dose 259 mg. The following applies: in vivo.
Data set [13] is described as follows: Oral absorption in dog. In kind it is ADME, organism-based, Canis lupus familiaris. The following applies: in vivo, read-out: Absorption.
The nature of data set [14]: Oral absorption in ferret. Particulars: in vivo, read-out: Absorption. It is filed as ADME, organism-based, Mustela putorius furo.
A short description of data set [15]: Oral absorption in rat. It is filed as ADME, organism-based. The following applies: in vivo, read-out: Absorption.
A short description of data set [16]: Oral absorption in monkey. It is filed as ADME. The following applies: simiiformes, in vivo, read-out: Absorption.
The nature of data set [17]: Oral bioavailability against cynomolgus monkeys at the dose of 3 mg/kg. The following applies: cynomolgus monkey, in vivo. In kind it is ADME, organism-based, Macaca fascicularis.
The target of the next data set is Cathepsin D (Homo sapiens, UniProt P07339). The experiment in a line: Inhibitory concentration against cathepsin D..
Sequence of Cathepsin D (P07339 65-162 limits assumed): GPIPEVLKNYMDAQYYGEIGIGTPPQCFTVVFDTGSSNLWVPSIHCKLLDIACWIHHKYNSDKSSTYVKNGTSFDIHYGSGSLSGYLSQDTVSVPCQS
Sequence of Cathepsin D (P07339 169-412 limits assumed): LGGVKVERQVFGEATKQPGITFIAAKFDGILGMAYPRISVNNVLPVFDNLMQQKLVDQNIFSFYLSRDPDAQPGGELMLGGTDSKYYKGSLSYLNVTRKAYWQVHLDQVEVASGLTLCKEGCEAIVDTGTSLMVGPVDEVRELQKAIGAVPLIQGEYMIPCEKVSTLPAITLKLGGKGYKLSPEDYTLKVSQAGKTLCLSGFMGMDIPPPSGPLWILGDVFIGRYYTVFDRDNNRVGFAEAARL
The next data set deals with T4, Renin (Homo sapiens, UniProt P00797).
T4 sequence (P00797 whole entry): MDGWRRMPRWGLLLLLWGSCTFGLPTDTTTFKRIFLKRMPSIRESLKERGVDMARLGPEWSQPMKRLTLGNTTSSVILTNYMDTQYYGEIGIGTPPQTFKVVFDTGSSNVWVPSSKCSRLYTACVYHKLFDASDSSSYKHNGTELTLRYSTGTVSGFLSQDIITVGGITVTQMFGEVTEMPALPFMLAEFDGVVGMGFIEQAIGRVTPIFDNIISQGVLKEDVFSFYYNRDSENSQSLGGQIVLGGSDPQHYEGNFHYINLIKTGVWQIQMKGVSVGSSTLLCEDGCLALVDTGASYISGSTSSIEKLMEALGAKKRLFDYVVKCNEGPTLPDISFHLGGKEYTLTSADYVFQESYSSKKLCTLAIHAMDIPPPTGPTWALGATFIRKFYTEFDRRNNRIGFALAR
The experiment in a line: Inhibitory concentration against human plasma renin at pH 6. In kind it is cell-free.

Data set [18] in a line: Cmax value in the period of […] hr after dosing. It is filed as ADME, organism-based. The following applies: in vivo.
A short description of data set [19]: Cmax value in the period of […] hr after dosing, when administered with ritonavir. In kind it is ADME, organism-based. Particulars: in vivo.
The subject of the next data set is MT4. The experiment in a line: cells. Particulars: Homo sapiens.
Data set [20] in a line: oral bioavailability in Hamsters. It is filed as ADME, organism-based. Particulars: cricetinae, in vivo, read-out: Bioavailabiility.
Data set [21] is described as follows: The in vivo activity ED50 (iv). It is filed as functional.
Data set [22] can be described thus: The in vivo activity ED50 (oral). It is filed as functional.
Data set [23] addresses T1, Cathepsin B. The experiment in a line: Inhibitory activity against Cathepsin B.
Data set [24] addresses Calpain-2 catalytic subunit (Homo sapiens, UniProt P17655). The experiment in a line: Inhibitory activity against Calpain 2.
Data set [25] in a line: Inhibitory activity against alpha Chymotrypsinogen.
For the next data set, the target named is Procathepsin L (Homo sapiens, UniProt P07711). The experiment in a line: Inhibitory activity against cathepsin L, lysosomal cysteine protease.
Sequence of Procathepsin L (P07711 whole entry): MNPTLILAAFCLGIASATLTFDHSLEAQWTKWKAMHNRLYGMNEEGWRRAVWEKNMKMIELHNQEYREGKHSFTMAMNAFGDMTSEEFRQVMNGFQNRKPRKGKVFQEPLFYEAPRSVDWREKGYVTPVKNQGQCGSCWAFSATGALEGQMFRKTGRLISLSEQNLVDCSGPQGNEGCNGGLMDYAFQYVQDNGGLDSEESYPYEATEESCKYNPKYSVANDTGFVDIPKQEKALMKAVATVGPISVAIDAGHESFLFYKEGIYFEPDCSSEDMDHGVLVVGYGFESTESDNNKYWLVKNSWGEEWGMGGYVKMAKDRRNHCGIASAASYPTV

Sequence of Kallikrein-1 (P06870 whole entry): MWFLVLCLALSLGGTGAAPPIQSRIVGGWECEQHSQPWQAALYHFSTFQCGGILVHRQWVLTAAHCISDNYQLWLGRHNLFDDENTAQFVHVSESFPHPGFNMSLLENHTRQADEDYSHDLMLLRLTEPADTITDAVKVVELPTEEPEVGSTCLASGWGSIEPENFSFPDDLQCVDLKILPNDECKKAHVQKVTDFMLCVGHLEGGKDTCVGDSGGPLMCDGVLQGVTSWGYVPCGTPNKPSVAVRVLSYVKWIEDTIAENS
Sequence of Neutrophil elastase (P08246 whole entry): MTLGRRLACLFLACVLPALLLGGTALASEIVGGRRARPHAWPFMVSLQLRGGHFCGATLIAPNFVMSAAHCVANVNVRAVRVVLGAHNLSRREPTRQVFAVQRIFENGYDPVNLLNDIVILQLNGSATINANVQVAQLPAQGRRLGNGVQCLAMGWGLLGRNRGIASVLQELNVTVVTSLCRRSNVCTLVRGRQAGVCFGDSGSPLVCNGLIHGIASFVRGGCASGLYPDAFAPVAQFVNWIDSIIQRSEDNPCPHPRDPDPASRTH
Sequence of Serine protease 1 (P07477 whole entry): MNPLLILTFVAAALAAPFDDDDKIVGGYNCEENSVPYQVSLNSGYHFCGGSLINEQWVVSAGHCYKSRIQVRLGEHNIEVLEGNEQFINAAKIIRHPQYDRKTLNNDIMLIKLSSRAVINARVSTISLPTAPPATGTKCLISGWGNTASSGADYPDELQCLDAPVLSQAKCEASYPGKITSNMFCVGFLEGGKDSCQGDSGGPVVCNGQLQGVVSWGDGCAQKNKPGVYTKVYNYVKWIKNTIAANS
Sequence of Calpain-2 catalytic subunit (P17655 whole entry): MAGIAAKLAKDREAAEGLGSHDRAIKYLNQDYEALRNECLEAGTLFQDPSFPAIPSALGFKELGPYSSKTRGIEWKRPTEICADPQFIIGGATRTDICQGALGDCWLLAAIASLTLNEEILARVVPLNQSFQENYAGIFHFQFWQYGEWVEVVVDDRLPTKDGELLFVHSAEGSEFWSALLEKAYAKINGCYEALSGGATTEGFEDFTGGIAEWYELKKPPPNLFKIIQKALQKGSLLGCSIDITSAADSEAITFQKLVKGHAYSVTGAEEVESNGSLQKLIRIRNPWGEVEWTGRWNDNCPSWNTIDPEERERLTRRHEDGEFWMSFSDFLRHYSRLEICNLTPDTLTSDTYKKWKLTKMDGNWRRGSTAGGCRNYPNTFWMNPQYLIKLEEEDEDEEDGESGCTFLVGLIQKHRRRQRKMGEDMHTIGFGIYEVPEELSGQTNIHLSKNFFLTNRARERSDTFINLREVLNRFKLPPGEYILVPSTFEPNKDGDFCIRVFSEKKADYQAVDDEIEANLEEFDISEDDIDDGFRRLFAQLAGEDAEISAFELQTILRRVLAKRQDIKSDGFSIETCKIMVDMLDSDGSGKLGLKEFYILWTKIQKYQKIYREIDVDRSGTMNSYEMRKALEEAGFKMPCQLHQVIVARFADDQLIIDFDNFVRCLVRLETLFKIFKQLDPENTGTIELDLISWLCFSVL

`CC(SC(=O)c1cccs1)C(=O)NC1CCSC1` (stereo not given) displayed a Ki on Neutrophil elastase of 1380 nM.
Consider `N=C(N)c1ccc2cc(OC(=O)c3ccc(NC4=NCCN4)cc3)ccc2c1` [SEPIMOSTAT MESYLATE], for which the Ki in data set [1] came out at 6400 nM; at Kallikrein-1, 610 nM; at Plasma kallikrein it was 570 nM; at Serine protease 1, 290 nM; on Prothrombin, 2500 nM; at Coagulation factor X it was 20400 nM. Further, the IC50 in data set [2] was 3500 nM; in data set [3], 170 nM.
As for `CO[C@H]1C(=O)N2C(C(=O)N3CCC[C@H]3C(=O)O)=C(COC(C)=O)CS(=O)(=O)[C@H]12`, the ED50 in [4] amounted to 5 µg animal-1.
As to `Cc1cc(C)c(C(=O)OCC(=O)[C@H](CCCCN)NC(=O)[C@H](Cc2ccccc2)NC(=O)OCc2ccccc2)c(C)c1`, the ED50 on Cathepsin B [5] worked out at 5 mg/kg; at Cathepsin B [6], 18 mg/kg; on Cathepsin B [7] it was 2.4 mg/kg.
`CC(C)C[C@H](NC(=O)OCc1ccccc1)C(=O)N[C@@H](Cc1ccccc1)C(=O)N[C@H](C=O)CCC(N)=O` (Cbz-Leu-Phe-Gln-aldehyde) returned an EC50 in [8] of 66000 nM. In addition, in data set [9], the TC50 was found to be 398000 nM.
`CC(C)C[C@H](NC(=O)OCc1ccccc1)C(=O)NNC(=O)NNC(=O)[C@H](CC(C)C)NC(=O)OCc1ccccc1` displayed a Ki obs / [I] in [10] of 3.1 M⁻¹ s⁻¹.
On to `CC(C)C[C@H](O)[C@H](O)[C@H](CC1CCCCC1)NC(=O)[C@H](Cc1cscn1)NC(=O)[C@H](Cc1ccccc1)CS(=O)(=O)N1CCN(C)CC1` [ZANKIREN], for which the Cmax came to 430 ng/mL in [11] and 1150 ng/mL in [12]. For the same molecule, the Fa in data set [13] was found to be 53%; in [14], 32%; in data set [15], 24%; in [16] it was 8%.
In data set [17], `CC(C)C[C@H](O)[C@H](O)[C@H](CC1CCCCC1)NC(=O)[C@@H](CC(=O)N(CC(=O)N(C)CCc1ccccn1)CC1CCCCC1)Cc1csc(N)n1` yielded a bioavailability of 40%. The values for the half-maximal inhibitory concentration (IC50) against Cathepsin D and against Renin were 550 nM and 1.4 nM, respectively.
For the molecule `Cc1cccc(C)c1OCC(=O)N[C@@H](Cc1ccccc1)[C@@H](O)C[C@H](Cc1ccccc1)NC(=O)[C@H](C(C)C)N1CCCNC1=O` [LOPINAVIR], the Cmax at 8 h was below 100 ng/mL in [18] and 5500 ng/mL in data set [19]. Further, the EC50 with MT4 was determined as 100 nM.
For the molecule `COC(=O)N[C@H](C(=O)N1CCC[C@H]1C(=O)N[C@H](C(=O)C(F)(F)F)C(C)C)C(C)C` (Moc-Val-Pro-Val-CF3), the bioavailability in data set [20] came out at 75%. Further, the ED50 in [21] amounted to 0.51 mg/kg; in data set [22], 2 mg/kg.
Regarding `O=C[C@H](Cc1ccc(O)cc1)NC(=O)[C@H](Cc1ccccc1)NC(=O)OCc1ccccc1` (Cbz-Phe-Tyr-aldehyde), the IC50 against Cathepsin B [23] was 85.1 nM; in data set [24], 184 nM; in data set [25] it was above 1 µg/mL; against Procathepsin L it was 0.85 nM.
